The source of these data is ChEMBL document CHEMBL1158462, “Recent advances in the development of polyamine analogues as antitumor agents” (J Med Chem, 2009).

Assay [1] concerns A549. Put plainly: Antitumor activity against human A549 cells xenografted nu/nu Fox Chase mouse assessed as reduction in tumor growth at 75 mg/kg. Details: scale not given: the % may be the effect or the level left. It is filed as functional. On the technique in general: Xenograft models place foreign cells or tissue in a host animal.
Assay [2] relates to A549. Put plainly: Antitumor activity against human A549 cells xenografted nu/nu Fox Chase mouse assessed as reduction in tumor growth at 125 mg/kg. Details: scale not given: the % may be the effect or the level left. It is filed as functional.
For the next assay, the system named is NCI-H69. In words: Antitumor activity against human H69 cells. It is filed as functional, cell-based.
Assay [3] is described as follows: Antitumor activity against human H82 cells. The following applies: NCI-H82. It is filed as functional, cell-based.
A further assay concerns NCI-H157. In words: Antitumor activity against human NCI-H157 cells by MTT assay. Format: functional, cell-based. Background: Formazan colour is commonly taken as a measure of viable cells.
Assay [4] has as its system A549. Put plainly: Antitumor activity against human A549 cells. Format: functional, cell-based.
In a further assay the test system is MCF7. Put plainly: cells. It is filed as functional, cell-based. To be noted: Homo sapiens.
In a further assay the test system is T47D. In words: Antitumor activity against human T47D cells. Format: functional, cell-based.
Another assay concerns ZR-75-1. Put plainly: Antitumor activity against human ZR-75-1 cells. Format: functional, cell-based.
Assay [5] in a line: Antitumor activity against human Hs 578T cells. Format: functional, cell-based.
The test system of the next assay is MDA-MB-468. Put plainly: Antitumor activity against human MDA-MB-468 cells. It is filed as functional, cell-based.
Assay [6] concerns the target Lysine-specific histone demethylase 1A (Homo sapiens) (UniProt O60341). The following applies: 1 uM.
Description: Inhibition of LSD1 at 1 uM
For assay [7], the system named is RKO. Put plainly: Induction of SFRP4 expression in human RKO cells at 1 uM. It is filed as functional.
Assay [8] relates to RKO. Put plainly: Induction of H3K4me2 expression in human RKO cells at 1 uM. Format: functional.
Assay [9] deals with RKO. Put plainly: Induction of SFRP5 expression in human RKO cells at 1 uM. It is filed as functional.

For orientation: IC50 means the concentration needed to halve the response being measured. The term inhibition denotes the share of the control response that was lost under treatment.

The structures appear in SMILES notation.

Description for MCF7: Antitumor activity against human MCF7 cells

As to `CCNCCCNCCCNCCCNC[C@H](C)CO`, the Activity in the assay on A549 [1] and in the assay on A549 [2] was 65% throughout. For the same molecule, the IC50 in the assay on NCI-H69 was 700 nM; in assay [3], 700 nM; in the assay on NCI-H157, 2200 nM; with A549 [4] it was 700 nM.

For the molecule `CCNCCCNCCCNCCCNCC1CC1`, the IC50 (in the assay on MCF7; in the assay with T47D; in the assay with ZR-75-1; in assay [5]; with MDA-MB-468; with NCI-H157) was 200 nM each time.

Regarding `N=C(NCCCNCCCCCCCNCCCNC(=N)NC(=N)NCCC(c1ccccc1)c1ccccc1)NC(=N)NCCC(c1ccccc1)c1ccccc1`, the inhibition in [6] was 90.9%. In addition, the Activity in the assay with RKO [7], in the assay on RKO [8] and in the assay on RKO [9] was 20% in each case.
